In US20210052566A1, “METHODS FOR TREATING HEPATITIS B VIRUS (HBV) INFECTION” (INSERM (INSTITUT NATIONAL DE LA SANTÉ ET DE LA RECHERCHE …, priority 2018, published 2021):

How the values were obtained:
HBV genotype C = experiment: Anti-HBV properties in persistently infected dHepaRG cells, genotype C; format: cell-based, Hepatitis B virus; settings: 10 microM three times
Procedure: FIG. 1. Experimental outlines. Treatment schemes: (a) Treatments in pre-infection: dHepaRG cells were treated for 24 h (at day −1) with 100 nM of PreS1 peptide (PreS1-pep) or 10 μM of 1C8, or untreated (NT). At day 0, cells were inoculated with HBV (MOI=250) or with HDV (MOI=25) in the presence of drugs for 24 h. For the tenofovir control (TDF at 10 μM), cells were treated at day 1 and 4 post-infection. Supernatant and cells were harvested at day 7 post-infection. (b) Treatments in post-infection: dHepaRG cells were inoculated with HBV (MOI=250) or with HDV (MOI=25). At days 4, 7 and 9 post infection, cells were treated with TDF 10 μM, lamivudine (3TC) at 10 μM, 1C8 10 μM or untreated (NT). […]
FIG. 6. […] B) HBs and HBe secreted antigens in supernatant were quantified by ELISA, whereas HBV DNA contained in virions was quantified by qPCR after viral nucleic acid extraction from supernatant. […] Statistics were done by two-tailed Mann-Whitney test, with following significativity: *P<0.05, **P<0.01, ***P<0.001, ****P<0.0001. nd=not determined. […]
From cell culture supernatants, secreted HBe and HBs antigens were quantified by ELISA, using a chemiluminescence immunoassay kit (Autobio, China) following manufacturer's instructions. […]
A HBV standard was used for quantification of extracellular viral DNA and RNA. […] CccDNA was normalized to β-Globin quantification. […]

HDV genotype 1 = experiment: Hepatitis delta virus replication in infected dHepaRG cells (intracellular HDV RNA, RTqPCR); format: cell-based; settings: HDV MOI 10 vge/cell, 10 microM three times post-infection
Procedure: FIG. 1. Experimental outlines. Treatment schemes: (a) Treatments in pre-infection: dHepaRG cells were treated for 24 h (at day −1) with 100 nM of PreS1 peptide (PreS1-pep) or 10 μM of 1C8, or untreated (NT). At day 0, cells were inoculated with HBV (MOI=250) or with HDV (MOI=25) in the presence of drugs for 24 h. For the tenofovir control (TDF at 10 μM), cells were treated at day 1 and 4 post-infection. Supernatant and cells were harvested at day 7 post-infection. (b) Treatments in post-infection: dHepaRG cells were inoculated with HBV (MOI=250) or with HDV (MOI=25). At days 4, 7 and 9 post infection, cells were treated with TDF 10 μM, lamivudine (3TC) at 10 μM, 1C8 10 μM or untreated (NT). Supernatant and cells were harvested at day 11 postinfection.
FIG. 5. […] B) HBs and HBe secreted antigens in supernatant were quantified by ELISA, whereas HBV DNA contained in virions was quantified by qPCR after viral nucleic acid extraction from supernatant. C) Intracellular HDV RNA was quantified by RTqPCR after total RNA extraction from cells. D) Viability was monitored in 1C8-treated (or control treated; puromycin is a positive toxic molecule) cells by CellTiter-Glo® luminescent cell viability assay. […] Statistics were done by two-tailed Mann-Whitney test, with following significativity: *P<0.05, **P<0.01, ***P<0.001, ****P<0.0001. nd=not determined

Cn1ccc(=O)c(C(=O)Nc2nsc3ccc([N+](=O)[O-])cc23)c1 [1C8, 4-pyridinonebenzisothiazole carboxamide]
antiviral properties against genotype C virus (HBV genotype C): retained antiviral properties against this strain, although with a slightly reduced efficacy
inhibition of replication of hepatitis delta virus (HDV genotype 1): not capable to inhibit
